Data taken from patent US20220323406A1, “METHODS AND COMPOSITIONS FOR DIFFERENTIATING STEM CELLS” (Massachusetts Institute of Technology, priority 2019, published 2022).
“Also recorded” adds a separate entry of the source.

Columns and labels:
[1] = tested on: ENR+CD organoids (ISC to Paneth cell differentiation); experiment: Primary screen: basal (non-stimulated) lysozyme secretion LYZ.NS, 2.5-D 384-well ENR+CD organoid differentiation; type: cell-based, mouse; conditions: for Dose.FC.LYZ.NS (log2 fold change) / Z.LYZ.NS (standard z score): primary screen
Text: (§1) High-throughput screening.

[2] = tested on: ENR+CD organoids (ISC to Paneth cell differentiation); experiment: Primary screen: CCh-stimulated lysozyme secretion LYZ.S, 2.5-D 384-well ENR+CD organoid differentiation; type: cell-based, mouse; conditions: primary screen
Text: as §1

[3] = tested on: ENR+CD organoids (ISC to Paneth cell differentiation); experiment: Secondary (validation) screen: LYZ.NS basal lysozyme secretion, 2.5-D 384-well ENR+CD organoids; type: cell-based, mouse; conditions: for Dose.FC.LYZ.NS: 6-day ENR+CD, vs ENR+CD+DMSO
[4] = tested on: ENR+CD organoids (ISC to Paneth cell differentiation); experiment: Secondary (validation) screen: LYZ.S CCh-stimulated lysozyme secretion, 2.5-D 384-well ENR+CD organoids; type: cell-based, mouse; conditions: for Dose.FC.LYZ.S: 6-day ENR+CD, vs ENR+CD+DMSO
intestinal organoids = experiment: Population RNA-sequencing of treated organoids; type: cell-based, mouse
Protocol: Population RNA-sequencing. Population RNA-seq was performed using a derivative of the Smart-Seq2 protocol for single cells. In brief, organoid media was aspirated and RLT+BME (Qiagen) was added to each well, and plate shaken for 30 minutes to fully lyse. Lysate was aliquoted into 4 identical fractions and stored at −80° C. until reverse transcription. RNA lysate was thawed and cleaned with a 2.2×SPRI ratio using Agencourt RNAClean XP beads (Beckman Coulter, A63987). RNA-seq was performed on a bulk population of sorted basal cells using Smart-Seq2 chemistry, starting with a 2.2×SPRI ratio cleanup. After oligo-dT priming, Maxima H Minus Reverse Transcriptase (ThermoFisher EP0753) was used to synthesize cDNA with an elongation step at 52° C. before PCR amplification (15 cycles for tissue, 18 cycles for sorted basal cells) using KAPA HiFi PCR Mastermix (Kapa Biosystems KK2602). Sequencing libraries were prepared using the Nextera XT DNA tagmentation kit (Illumina FC-131-1096) with 250 pg input for each sample. Libraries were pooled post-Nextera and cleaned using Agencourt AMPure SPRI beads with successive 0.7× and 0.8× ratio SPRIs and sequenced with an Illumina 75 Cycle NextSeq500/550v2 kit (Illumina FC-404-2005) with loading density at […], with paired end 35 cycle read structure. Samples were sequenced at an average read depth of 8.44 million reads per sample and a total of 96 samples.
Organoid samples were aligned to the Mm10 genome and transcriptome using STAR and RSEM. […] For module scoring with the in vivo Paneth and enteroendocrine cell-defining genes, Applicants used previously published gene sets and computed per sample module scores through the Seurat package.

[5] = tested on: ENR+CD organoids, stem II/III cells; experiment: Single-cell RNA-sequencing (Seq-Well) of organoid differentiation time course; type: cell-based, mouse
Text: For time points beyond 2 days, media was refreshed every other day. Following the Seq-Well protocol Applicants followed a standard library preparation, sequencing, and alignment process (see Methods).
Single-cell RNA-sequencing. A single-cell suspension was obtained from organoids cultured under conditions for the differentiation time course as described above. Applicants utilized the Seq-Well platform for massively parallel scRNA-seq to capture transcriptomes of single cells on barcoded mRNA capture beads. […] In brief, 20,000 cells from one organoid condition were loaded onto one array containing 100,000 barcoded mRNA capture beads. The loaded arrays containing cells and beads were then sealed using a polycarbonate membrane with a pore size of 0.01 μm, which allows for exchange of buffers but retains biological molecules confined within each microwell. Subsequent exchange of buffers allows for cell lysis, transcript hybridization, and bead recovery before performing reverse transcription en masse. Following reverse transcription and exonuclease treatment to remove excess primers, PCR amplification was carried out using KAPA HiFi PCR Mastermix with 2,000 beads per 50 μL reaction volume. Libraries were then pooled and purified using Agencourt AMPure XP beads (Beckman Coulter, A63881) by a 0.6×SPRI followed by a 0.8×SPRI and quantified using Qubit hsDNA Assay (Thermo Fisher). Libraries were constructed using the Nextera Tagmentation method on a total of 800 pg of pooled cDNA library per sample. […] Arrays were sequenced with an Illumina NovaSeq System. The read structure was paired end with Read 1 starting from a custom read 1 primer containing 20 bases with a 12 bp cell barcode and 8 bp unique molecular identifier (UMI) and Read 2 being 50 bases containing transcript information.
Single-cell RNA-sequencing computational pipelines and analysis.

[6] = mouse, in vivo, po
[7] = tested on: Paneth, goblet and cycling cells of small intestine; experiment: KPT-330 treatment in vivo (Example 1), histology of proximal and distal small intestine; parameters: cycling cell number, distal small intestine: dose or concentration left out as unconfirmed
[8] = validated dose-treatments, mean fold change vs ENR+CD+DMSO
[9] = stem II/III, day 0.25-2, FDR<0.05

SMILES: O=C(/C=C\n1cnc(-c2cc(C(F)(F)F)cc(C(F)(F)F)c2)n1)NNc1cnccn1 [KPT-330]
- primary screen hit call (SSMD and z-scored FC cutoffs in both LYZ assays) ([1]; LYZ.NS and LYZ.S, 0.08-10 uM, 6 days ENR+CD): sole hit in their respective pathway
- Dose.FC.LYZ.NS (log2 fold change) ([1]; dose 0.08 uM): 0.200
- Z.LYZ.NS (standard z score) ([1]; dose 0.08 uM): 1.745
- Dose.FC.LYZ.NS (log2 fold change) ([1]; dose 0.40 uM): −0.266
- Z.LYZ.NS (standard z score) ([1]; dose 0.40 uM): −2.317
- Dose.FC.LYZ.NS (log2 fold change) ([1]; dose 2.00 uM): −0.280
- Z.LYZ.NS (standard z score) ([1]; dose 2.00 uM): −2.439
- Dose.FC.LYZ.NS (log2 fold change) ([1]; dose 10.00 uM): −0.284
- Z.LYZ.NS (standard z score) ([1]; dose 10.00 uM): −2.470
- Dose.FC.LYZ.S (log2 fold change) ([2]; dose 0.08 uM): 0.259
- Dose.FC.LYZ.S (log2 fold change) ([2]; dose 0.40 uM): −0.282
- Dose.FC.LYZ.S (log2 fold change) ([2]; dose 2.00 uM): −0.390
- Dose.FC.LYZ.S (log2 fold change) ([2]; dose 10.00 uM): −0.423
- Dose.FC.LYZ.NS ([3]; 0.02 uM): −0.005 log2 fold change
- Dose.FC.LYZ.NS ([3]; 0.04 uM): −0.040 log2 fold change
- Dose.FC.LYZ.NS ([3]; 0.08 uM): 0.142 log2 fold change
- validated doses in secondary screen (SSMD above cutoff in both LYZ assays) ([3]; LYZ.NS and LYZ.S): multiple validated doses
- Dose.FC.LYZ.NS ([3]; […]): 0.244 log2 fold change
- increase in basal LYZ secretion (LYZ.NS) relative to ENR+CD control [3, 8]: 50-75%
- Dose.FC.LYZ.S ([4]; 0.02 uM): −0.004 log2 fold change
- Dose.FC.LYZ.S ([4]; 0.04 uM): −0.077 log2 fold change
- Dose.FC.LYZ.S ([4]; 0.08 uM): 0.134 log2 fold change
- Dose.FC.LYZ.S ([4]; […]): 0.215 log2 fold change
- increase in stimulated LYZ secretion (LYZ.S) relative to ENR+CD control [4, 8]: 50-75%
- number of differentially expressed genes among hit compounds (intestinal organoids; ENR and ENR+CD): most differentially expressed genes
- secretory cell gene set scores (Paneth, goblet, EEC) from bulk transcripts (intestinal organoids; ENR+CV, ENR+CD or ENR): increase secretory cells (Paneth, goblet, and EEC)
- day 6 Paneth cell odds ratio (OR), treated vs control ([5]; 160 nM KPT-330 in ENR+CD): ~2
- organoid cell type composition over differentiation time course ([5]; 160 nM KPT-330 in ENR+CD vs ENR+CD, day 0.25-6): enhances stem conversion to mature cells; also recorded: relative depletion of stem I (and stem II & III) and enteroendocrine cells over time along with the corresponding enrichment of enterocytes and Paneth cells
- Atf3 (ATF3) expression ([5]; KPT-330 treated vs control cells): upregulated
- active / quiescent ISC signature in early stem cell populations ([5]; early stem II/III cells): induces a quiescent ISC signature and reduces an active ISC signature; also recorded: transition into quiescence
- GSEA hallmark programs: mitogen-driven signaling (E2F, MYC targets, G2M checkpoint) [5, 9]: suppresses programs downstream of mitogen-driven signaling
- GSEA hallmark programs: stress response (NFkB signaling, hypoxia, inflammatory response) [5, 9]: up-regulating programs broadly resembling a complex stress response
- toxicity to mice (body weight) [6]: toxic to mice
- Paneth cell number, distal small intestine ([7]; high dose): decreased Paneth cells
- cycling cell number, distal small intestine ([7]; low dose): significant increase in cycling cell number
- Paneth cell number, proximal small intestine ([7]; oral gavage, 1 week): no significant shift in Paneth cell number
- effect by histology ([7]; oral gavage, 1 week): pro-differentiation effect
- goblet cell numbers, proximal/distal small intestine ([7]; oral gavage, 1 week): no significant shift in goblet cell numbers
